Measured values as given in ChEMBL document CHEMBL1201862, “PubChem BioAssay data set” (2004).
One block for each compound: values may come before it. The source made the active and inactive calls.

Assays:
[1] = biological target: Voltage-gated inwardly rectifying potassium channel KCNH2 (Homo sapiens, UniProt Q12809); conditions: Potency;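 further: confirmatory quantitative high-throughput screen measuring inhibition of hERG channel activity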
[2] = biological target: CAAX prenyl protease 2 (Homo sapiens, UniProt Q9Y256); test: inhibition of Ras-converting CAAX protease Rce1 – biochemical, yeast membranes, quenched-peptide fluorescence, cherry-pick, dose response (AID 588849)
[3] = biological target: Trypsin (Sus scrofa, UniProt P00761); test: trypsin protease activity blockade – biochemical, quenched peptide fluorescence, cherry-pick, selectivity assay for Rce1 protease inhibitor project, dose response (AID 488789)
[4] = T. cruzi infection blockers in NIH3T3 cells – beta-gal luminescence, NIH3T3 host cells, confirmation (AID 2630); type: functional, cell-based; conditions: Mus musculus
[5] = Luminescence Cell-Based/Microorganism Confirmation at Dose of Inhibitors of Trypanosoma cruzi Infection. [Related pubchem assays: 1885, 1968 ]; type: functional
[6] = Luminescence Cell-Based Secondary HTS screen to identify cytotoxic compounds of NIH3T3 cells. [Related pubchem assays: 1885, 1968 ]; type: functional
[7] = HEK-293T viability loss, compound-treated – cell-based, uHTS hits, cytotoxicity control for B/T-cell NF-kB inhibitor project, dose response (AID 489019); type: functional;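 further: IC50 reflects cytotoxicity as loss of cell viability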
[8] = biological target: Galanin receptor type 3 (Homo sapiens, UniProt O60755); test: Fluorescence-based cell-based primary high throughput dose response assay to identify antagonists of the Galanin Receptor 3 (GalR3).; type: functional
[9] = biological target: Galanin receptor type 2 (Homo sapiens, UniProt O43603); test: Dose Response cell-based high-throughput screening assay to identify antagonists of galanin receptor 2 (GALR2). [Related pubchem assays: 828, 866 ]; type: functional
[10] = cells; type: functional, cell-based; conditions: HEK-CNG
[11] = biological target: T1, COUP transcription factor 2 (Homo sapiens, UniProt P24468); test: Luminescence-based cell-based high throughput dose response assay to identify inhibitors of COUP-TFII (NR2F2).; type: functional;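 further: HEK293 cells transiently cotransfected with COUP-TFII expression vector and reporter; luciferase reporter luminescence driven by COUP-TFII from the pX2-168 reporter plasmid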
T1 sequence (P24468 whole entry): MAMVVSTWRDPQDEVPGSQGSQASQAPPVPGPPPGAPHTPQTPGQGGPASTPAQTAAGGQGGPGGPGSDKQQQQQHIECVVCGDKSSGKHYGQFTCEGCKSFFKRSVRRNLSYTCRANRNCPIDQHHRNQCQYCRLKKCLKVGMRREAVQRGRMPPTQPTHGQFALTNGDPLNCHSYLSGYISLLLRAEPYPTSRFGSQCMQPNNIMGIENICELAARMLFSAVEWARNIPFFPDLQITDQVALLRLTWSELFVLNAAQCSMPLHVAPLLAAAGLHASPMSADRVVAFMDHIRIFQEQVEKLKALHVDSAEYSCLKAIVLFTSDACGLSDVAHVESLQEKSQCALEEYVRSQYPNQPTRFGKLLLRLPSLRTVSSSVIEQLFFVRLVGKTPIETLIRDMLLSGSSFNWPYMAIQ

[12] = system: Jurkat; test: blockers of NF-kB activation in T cells – Jurkat, luciferase reporter, luminescence, B- and T-cell, dose response (AID 489004); type: functional, cell-based; conditions: Homo sapiens;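 further: NF-kB luciferase reporter Jurkat cells stimulated with PMA plus ionomycin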
[13] = biological target: Beta-arrestin-1 (Homo sapiens, UniProt P49407); test: beta-arrestin/AP2 interaction blockers, potency – biochemical, cherry pick 1, beta2-adaptin appendage, flow cytometry, dose response (AID 588783); type: functional
Sequence of Beta-arrestin-1 (P49407 whole entry): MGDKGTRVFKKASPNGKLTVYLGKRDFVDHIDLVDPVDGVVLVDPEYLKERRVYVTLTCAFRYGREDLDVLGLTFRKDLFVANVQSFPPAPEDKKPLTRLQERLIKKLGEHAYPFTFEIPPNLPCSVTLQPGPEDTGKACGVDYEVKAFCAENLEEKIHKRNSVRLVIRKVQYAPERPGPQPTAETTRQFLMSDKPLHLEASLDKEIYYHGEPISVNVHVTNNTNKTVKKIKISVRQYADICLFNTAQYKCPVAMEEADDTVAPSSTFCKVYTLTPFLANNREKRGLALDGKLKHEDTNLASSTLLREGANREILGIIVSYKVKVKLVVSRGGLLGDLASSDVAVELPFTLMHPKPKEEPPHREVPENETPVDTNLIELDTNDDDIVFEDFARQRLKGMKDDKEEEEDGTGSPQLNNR

Sequence of Galanin receptor type 3 (O60755 whole entry): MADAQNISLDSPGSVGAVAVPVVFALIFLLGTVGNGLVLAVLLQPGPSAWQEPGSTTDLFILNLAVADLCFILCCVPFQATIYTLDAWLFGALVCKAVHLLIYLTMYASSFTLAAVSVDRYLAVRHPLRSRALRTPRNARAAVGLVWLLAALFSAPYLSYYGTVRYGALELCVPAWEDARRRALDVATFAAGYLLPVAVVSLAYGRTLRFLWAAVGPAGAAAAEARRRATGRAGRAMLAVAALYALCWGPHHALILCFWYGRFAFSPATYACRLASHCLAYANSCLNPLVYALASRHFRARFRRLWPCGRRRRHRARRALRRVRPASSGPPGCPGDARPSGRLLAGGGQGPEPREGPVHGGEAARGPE
Sequence of Galanin receptor type 2 (O43603 whole entry): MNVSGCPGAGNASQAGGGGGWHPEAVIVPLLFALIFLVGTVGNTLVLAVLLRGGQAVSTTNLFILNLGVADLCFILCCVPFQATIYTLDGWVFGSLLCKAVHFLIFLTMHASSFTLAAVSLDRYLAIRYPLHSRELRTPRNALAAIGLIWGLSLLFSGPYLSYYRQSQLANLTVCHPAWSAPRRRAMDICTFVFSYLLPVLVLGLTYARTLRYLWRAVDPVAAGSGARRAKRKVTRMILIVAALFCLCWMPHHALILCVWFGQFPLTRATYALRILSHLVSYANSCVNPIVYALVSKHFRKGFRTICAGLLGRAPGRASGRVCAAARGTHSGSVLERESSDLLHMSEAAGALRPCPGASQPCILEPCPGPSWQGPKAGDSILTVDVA
Sequence of CAAX prenyl protease 2 (Q9Y256 whole entry): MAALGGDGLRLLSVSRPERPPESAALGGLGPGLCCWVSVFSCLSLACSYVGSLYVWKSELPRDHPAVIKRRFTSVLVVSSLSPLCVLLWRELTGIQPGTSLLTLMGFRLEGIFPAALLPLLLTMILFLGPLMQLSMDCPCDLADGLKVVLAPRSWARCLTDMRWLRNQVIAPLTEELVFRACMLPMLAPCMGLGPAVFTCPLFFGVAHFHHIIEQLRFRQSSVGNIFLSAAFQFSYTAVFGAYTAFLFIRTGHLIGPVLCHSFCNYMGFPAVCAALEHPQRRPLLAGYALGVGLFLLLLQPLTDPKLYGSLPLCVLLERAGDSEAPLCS
Sequence of Voltage-gated inwardly rectifying potassium channel KCNH2 (Q12809 whole entry): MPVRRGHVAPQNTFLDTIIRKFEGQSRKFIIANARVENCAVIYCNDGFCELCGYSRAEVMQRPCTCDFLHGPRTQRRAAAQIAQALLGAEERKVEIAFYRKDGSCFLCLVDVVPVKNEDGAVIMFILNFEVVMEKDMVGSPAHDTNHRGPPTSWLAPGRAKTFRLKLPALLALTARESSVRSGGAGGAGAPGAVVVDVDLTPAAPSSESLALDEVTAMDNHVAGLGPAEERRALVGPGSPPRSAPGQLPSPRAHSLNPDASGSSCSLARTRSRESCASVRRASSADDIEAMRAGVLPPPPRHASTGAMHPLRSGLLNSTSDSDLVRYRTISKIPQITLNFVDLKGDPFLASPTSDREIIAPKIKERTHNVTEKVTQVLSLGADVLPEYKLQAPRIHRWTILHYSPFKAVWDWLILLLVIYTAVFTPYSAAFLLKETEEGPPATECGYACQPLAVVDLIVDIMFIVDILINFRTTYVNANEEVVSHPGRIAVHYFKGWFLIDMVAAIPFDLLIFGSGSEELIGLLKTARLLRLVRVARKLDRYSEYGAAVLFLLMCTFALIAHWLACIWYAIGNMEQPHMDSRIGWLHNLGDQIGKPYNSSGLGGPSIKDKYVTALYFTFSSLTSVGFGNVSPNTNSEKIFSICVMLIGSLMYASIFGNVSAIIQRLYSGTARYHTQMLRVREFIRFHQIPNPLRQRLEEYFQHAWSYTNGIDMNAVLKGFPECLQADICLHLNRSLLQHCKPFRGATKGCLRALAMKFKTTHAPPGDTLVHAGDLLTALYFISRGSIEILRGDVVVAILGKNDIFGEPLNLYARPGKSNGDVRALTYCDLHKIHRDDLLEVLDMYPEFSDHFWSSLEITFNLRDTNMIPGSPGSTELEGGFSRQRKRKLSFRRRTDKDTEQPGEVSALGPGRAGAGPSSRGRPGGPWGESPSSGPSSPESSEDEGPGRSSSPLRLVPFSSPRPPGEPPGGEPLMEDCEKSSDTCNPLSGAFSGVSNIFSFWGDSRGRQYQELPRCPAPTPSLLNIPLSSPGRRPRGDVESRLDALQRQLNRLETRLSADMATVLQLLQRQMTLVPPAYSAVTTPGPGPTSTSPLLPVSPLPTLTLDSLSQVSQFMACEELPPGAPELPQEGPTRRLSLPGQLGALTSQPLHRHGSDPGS
Sequence of Trypsin (P00761 whole entry): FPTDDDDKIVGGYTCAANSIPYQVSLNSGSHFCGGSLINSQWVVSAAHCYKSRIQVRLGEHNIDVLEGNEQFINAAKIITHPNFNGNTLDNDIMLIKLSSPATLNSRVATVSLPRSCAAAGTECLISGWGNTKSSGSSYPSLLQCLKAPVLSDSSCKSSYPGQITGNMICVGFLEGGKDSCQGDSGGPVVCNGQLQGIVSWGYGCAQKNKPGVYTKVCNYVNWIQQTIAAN

Compound: CCCN(CCC)C1Cc2cc(OC)c(OC)cc2C1
AC50 [1]: 14.1 µM (inconclusive)

AC50 [2]: 13.2 µM (active) | AC50 [3]: 11.6 µM (active)
Compound: COc1ccc(/C=C\c2cc(OC)c(OC)cc2CC[N+](C)(C)C)cc1OC

Compound: CCc1ccc2nc(N(CCN(C)C)C(=O)c3ccc4ncsc4c3)sc2c1
EC50 [4]: 0.176 µM (active) | EC50 [5]: 0.176 µM (active) | EC50 [6]: > 195 µM (inconclusive)

Compound: O=C(CSc1nnnn1C1CC2CCC1C2)Nc1ccnc2ccccc12 (stereo not drawn)
IC50 [7]: 45.1 µM (inactive) | IC50 [8]: 0.0869 µM (active) | IC50 [9]: > 42 µM (not active) | EC50 [10]: > 29.9 µM (inactive) | IC50 [11]: 0.568 µM (active) | IC50 [12]: 61.4 µM (inactive)

IC50 [13]: 3.12 µM (active)
Compound: CCN1/C(=C/c2ccc3cc(C)ccc3[n+]2C)Sc2ccc3sccc3c21
